Assay [1] has as its system NIH Swiss mice. In words: Locomotor activity by biotelemetry (cannabinoid tetrad). The assay is classed as in vivo, mouse. The following applies: M4 10 mg/kg i.p. + JWH-018 3 mg/kg i.p.
Assay [2] deals with T1, hCB2Rs (Homo sapiens (Human), UniProt P34972). The assay is described as follows: Competition receptor binding with [3H]CP-55,940 in CHO-hCB2 cell homogenates. Here is the method:
Competition receptor binding was performed as previously described. […] Reactions were terminated by rapid vacuum filtration through Whatman GF/B glass fiber filters, followed by five washes with ice-cold buffer (50 mM Tris, 0.05% BSA). Filters were immediately placed into 7 mL scintillation vials to which 4 mL of ScintiVerse™ BD Cocktail scintillation fluid (Fisher Scientific, Fair Lawn, N.J.) was added. Bound radioactivity was determined after overnight incubation at room temperature and shaking, by liquid scintillation spectrophotometry with an efficiency of 44% (Tri Carb 2100 TR Liquid Scintillation Analyzer, Packard Instrument Company, Meriden, Conn.). Specific binding is expressed as total binding minus non-specific binding, and is graphed for each data point as a percentage of specific binding occurring in the absence of any competitor.
The prepared analogues were subjected to in vitro pharmacological testing, which included receptor binding and functional assays at both cannabinoid receptors. Initial receptor binding screens at both CB1Rs and CB2Rs were conducted for the analogues prepared.

The target in assay [3] is CB1Rs (Mus musculus (Mouse), UniProt P47746). The assay is described as follows: Competition receptor binding with [3H]CP-55,940 in mouse brain homogenates.
For assay [4], the system named is NIH Swiss mice. The assay is described as follows: Analgesia, tail-flick latency. The assay is classed as in vivo, mouse. The following applies: M4 10 mg/kg i.p. + JWH-018 3 mg/kg i.p.
The target of assay [5] is T1, hCB2Rs. In words: Inhibition of forskolin-stimulated cAMP production (adenylyl cyclase) in intact CHO-hCB2R cells. The assay is classed as cell-based. Here is the method:
Adenylyl cyclases are a family of membrane-bound enzymes that catalyze the intracellular production of the second messenger cAMP from ATP. Adenylyl cyclase activity is modulated by activated G-proteins: Gs-proteins stimulate activity, while Gi/o-proteins are inhibitory. Thus, agonists of G-protein coupled receptors (GPCRs) coupled to Gi/o-proteins, such as hCB2Rs, decrease cAMP production due to inhibition of adenylyl cyclase activity. In this assay, intact CHO-hCB2R cells are preincubated with [^3H]-adenine and treated with forskolin (10 or 30 μM) to stimulate adenylyl cyclase activity.
A functional assay screen for the inhibition of adenylate cyclase (AC) activity was chosen as the subsequent assay. […] Reaching full-receptor occupancy, which is predicted to produce maximal efficacy, is desirable at 10 μM concentration of all the compounds was used.

For assay [6], the system named is NIH Swiss mice. The assay is described as follows: Catalepsy, horizontal bar test. The assay is classed as in vivo, mouse. The following applies: M4 10 mg/kg i.p. + JWH-018 3 mg/kg i.p.
For assay [7], the target named is CB1Rs endogenously expressed in Neuro2A cells (Mus musculus (Mouse), UniProt P47746). The assay is described as follows: Adenylyl cyclase (AC) inhibition via CB1Rs endogenously expressed in Neuro2A cells. The assay is classed as cell-based.
Assay [8] has as its system mice trained to discriminate THC. In words: THC drug discrimination (generalization of JWH-018 to THC). The assay is classed as in vivo, mouse. The following applies: M4 10 mg/kg i.p. + JWH-018 1 mg/kg; training dose THC 10 mg/kg i.p.
Assay [9] deals with mice. The assay is described as follows: Thermoregulation assay, antagonism of JWH-073-induced hypothermia. The assay is classed as in vivo, mouse. The following applies: 10 mg/kg. The text has this:
Our hypothesis is that a dual activity CB1R antagonist/CB2R agonist will reduce the reinforcing effects of EtOH as well as reduce the conditioned rewarding effects of ethanol in mice. The compounds selected will firstly be put through a thermoregulation assay as a screen for potential cannabinoid receptor activity. Thermoregulation will be used as a screen because of the well-established hypothermic effects seen with the use of cannabinoid ligands. This assay was done using glass radiotelemetry probes that were surgically implanted in each mouse, which monitor core temperature in response to drug administration. […] This screen does indeed confirm the in vivo cannabinoid activity of TV-5-249 and TV-6-41 and it also illustrates the evident antagonist effects against agonist induced hypothermia.

[10] abbreviates: CHO-hCB2 homogenates (100 μg), read-out: affinity (Ki) at hCB2Rs.
The mark [11] stands for this setting: mouse brain homogenates, 0.2 nM [3H]CP-55,940, read-out: [3H]CP binding Ki.

Like-named read-outs stand apart in the source and are kept apart here.

`CCCCn1cc(C(=O)c2cccc3ccccc23)c2cccc(O)c21` [Compound M4]: the “antagonism of JWH-018-induced locomotor suppression” value in assay [1] is on record as “no difference”. Besides, the inhibition constant (Ki) in assay [2] (CHO-hCB2 homogenates (100 μg), listed as JWH-073-M4, read-out: affinity (Ki) at hCB2Rs) was about 250 nM; in assay [2] (setting [10]), 251 ± 91.1 nM; in assay [2] (Table 3, read-out: hCB2R Ki), 78.3 ± 36.2 nM; in assay [3] (Table 3, read-out: mCB1R Ki) it was 24.2 ± 17.2 nM; in assay [3] (mouse brain homogenates, 0.2 nM [3H]CP-55,940, listed as JWH-073-M4, read-out: [3H]CP binding Ki) it was about 120 nM; in [3] (setting [11]), 122 nM. Besides, the “antagonism of JWH-018-induced analgesia” value in assay [4] is listed as “no difference”. For the same molecule, the “inhibition of cAMP production relative to vehicle, concentration effect curve” value in assay [5] (10 μM forskolin, n=1) was found to be 81%. Besides, in assay [5] (10 μM, 30 μM forskolin), the “inhibition of intracellular cAMP production, single concentration” value was 48%. Besides, the “potency (IC50) of inhibition of intracellular cAMP production” value in assay [5] (CHO-hCB2R cells) was “nanomolar potency”. In assay [6], the “antagonism of JWH-018-induced catalepsy” value is reported as “no difference”. For the same molecule, the “inhibition of adenylyl cyclase activity, reversed by O-2050 (1 μM)” value in assay [7] (M4 1 μM) was “inhibited activity of the downstream intracellular effector adenylyl cyclase”. Moreover, in assay [7] (Neuro2A cells), the IC50 came to 225 nM. Further, the “inhibition of AC-activity via CB1Rs, concentration-effect” value in [7] (Neuro2A cells) was 50-60%. For the same molecule, the “antagonism of generalization of JWH-018 to THC (THC-appropriate responding)” value in [8] is recorded as “No change in THC-appropriate responding”.
Consider `CCCCn1cc(C(=O)c2cccc3ccccc23)c2ccccc21` [JWH-073, (1-butyl-1H-indole-3-yl)-1-naphthalenyl-methanone], for which the Ki in [2] (setting [10]) came to 9.84 ± 0.92 nM; in assay [2] (Table 3, read-out: hCB2R Ki), 9.8 ± 0.9 nM; in assay [3] (Table 3, read-out: mCB1R Ki) it was 12.9 ± 3.4 nM; in [3] (setting [11]), 12.9 ± 3.4 nM. The hypothermic effect entry in assay [9] is recorded as “profound hypothermic effect”.
